Measurements reported in publication PMC4919555 (EBioMedicine, 2016).
Like-named read-outs stand apart in the source and are kept apart here.

Legend:
[1] = tested on: M. tuberculosis wild-type, katG-null and katG-overexpressing strains; type: cell-based
[2] = tested on: M. tuberculosis clinical isolates; type: cell-based

SMILES | Killing of katG-null mutant strain [1] | Response of katG-null mutant [1] | Response of katG-overexpressing strain ([1]; 3.6 μM (0.5 μg/ml), 4 days) | Ratio (MIC relative to H37Rv) ([2]; CI1, − 15 C/T inhA) | Ratio (MIC relative to H37Rv) ([2]; CI2, − 15 C/T inhA) | Ratio (MIC relative to H37Rv) ([2]; CI3, − 15 C/T inhA)
Cc1csc([C@](C)(O)c2nnc(Nc3ccn(Cc4csc(C)n4)n3)s2)n1 [GSK693, (S)-1-(4-methylthiazol-2-yl)-1-(5-((1-((2-methylthiazol-4-yl)methyl)-1H-pyrazol-3-yl)amino)-1,3,4-thiadiazol-2-yl)ethanol] | killed equally well as the wild-type strain |  |  |  |  | 
NNC(=O)c1ccncc1 [INH, isoniazid] |  | resistant | more sensitive compared to the wild-type strain | 6 | 3 | 3
